Key:
phosphorylated p53 = test: p53 phosphorylation by in vivo [32P]orthophosphate labeling of HT1080 cells; format: cell-based, human; conditions: HT1080, triptolide 20 ng/ml, 3 h
Procedure: In Vivo [^32P]Orthophosphate Labeling. Subconfluent HT1080 cells were pretreated with 20 ng/ml triptolide for 2 h in Dulbecco's modified Eagle's medium supplemented with 10% fetal bovine serum and antibiotics. These cells were washed twice with 37 ° C. labeling medium (Dulbecco's modified Eagle's medium, 10% fetal bovine serum dialyzed against phosphate-free) lacking sodium phosphate. Cells were then labeled for an additional 1 h with the labeling medium containing 1 mCi/ml [32P]orthophosphate and 20 ng/ml triptolide. The labeling medium was removed, and the cells were washed three times with cold Tris-buffered saline (TBS). The cells were scraped in 1 ml of lysis buffer (1% Nonidet P40, 1% sodium deoxycholate, 0.1% SDS, 0.15 M NaCl, 0.01 M sodium phosphate, pH 7.2, 2 mM EDTA, 50 mM sodium fluoride, 0.2 mM sodium vanadate, and 100 units/ml aprotinin) and kept on ice for 10 min. Lysates were passed through 27-gauge needles and spun at 11,000×g for 10 min, and 100 μg of the supernatants were subjected to immunoprecipitation with p53 mAb (Ab-6) conjugated with agarose for 4 h. Samples were then spun at 2500 rpm at 4° C. for 5 min and washed three times with the lysis buffer. The pellets were boiled in SDS sample buffer and analyzed on 10% SDS-PAGE. The bands were visualized and quantified by Optiquant Phosphorlmager.

p53 mRNA [1] = test: p53 mRNA by RT-PCR in MCF-7 cells; format: cell-based, human; conditions: MCF-7 cells treated for 16 h
Procedure: RT-PCR. RNA was prepared from MCF-7 cells using Rneasy Mini Kit from Qiagen Inc. (Valencia, Calif.). cDNAs were prepared using M-MLV reverse transcriptase (Gibco) with 2 μg of total RNA. 1/20 of total cDNA was used in limited (25 cycles) PCR reactions using Taq polymerase (Gibco). The following primer pairs were used: p53 [SEQ ID NO:1] 5′-[…]-3′ and 5′-[SEQ ID NO:2] TCTTCUTXGGCTGGGGAGAG-3′, mdm2, [SEQ ID NO:3] 5′-[…]-3′ and [SEQ ID NO:4] 5′-[…]-3′, p21, [SEQ ID NO:5] 5′-[…]-3′ and [SEQ ID NO:6] 5′-[…]-3′, and glyceraldehyde-3-phosphate dehydrogenase (GAPDH)- [SEQ ID NO:7] 5′-[…]-3′ and [SEQ ID NO:8] 5′-[…]-3′.
In the experiments shown in FIG. 5, RT-PCR was performed using 2 μg of total RNAs extracted from MCF-7 cells. […] GADPH was used as a loading control. The plasmid pBP100-GL2 which contains a p53-binding site in the mdm2 promoter was transiently transfected into MCF-7 cells, and cellular lysates were used for the luciferase assay.

p53 = p53 translocation into the nucleus, sub-cellular fractionation of MCF-7 cells; format: cell-based, human; conditions: MCF-7, triptolide 20 ng/ml
Procedure: Sub-cellular fractionation of MCF-7 cells. After treatment with triptolide (5 or 20 ng/ml) and/or doxorubicin (100 nM) cytosolic and nuclear extracts were prepared as previously described (Lee et al. (1988) Gene Anal Tech 5:22-31) and 50 μg of each extract was used in SDS/PAGE immunoblot analysis of p53.

Dx5 cells = test: Cell survival of Bcl-2 or vector transfected Dx5 cells (X-gal staining); format: cell-based, human; conditions: PG490 20 ng/ml, 36 h
Procedure: Cells were cultured in the appropriate medium with 10% FCS supplemented with L-glutamine, penicillin and streptomycin. To examine the effect of Bcl-2 on cell survival, the Bcl-2 expression vector or the vector alone was co-transfected with a β galactosidase expression vector (Invitrogen, Carlsbad, Calif.) at a 5:1 ratio using lipofectamine plus (GIBCO BRL, Gaithersburg, Md.) into Dx5 cells. After 36 h cells were stained with 5-bromo4-chloro-3-indolyl □-D-galactopyranoside (X-gal). Cell survival was calculated as number of total cells-blue cells/total number of cells in a 90 mm^2 area from duplicate plates and expressed as the mean ±S.D.
Bcl-2 or vector control was transiently transfected into Dx5 cells followed by the addition of PG490 (20 ng/ml) and stained 36 h later with X-gal. % cell survival was calculated as total cells-blue cells/total cells×100. z-VAD.fmk (100 µM) was added to Dx5 cells 1 h prior to the addition of PG490 (20 ng/ml) and cells were harvested for analysis of cell viability 36 h later by annexin and propidium iodide staining followed by FACS analysis. Data represents the mean of three replicates from two independent experiments ±S.D.

[2] = test system: MCF-7 (breast cancer) cells; test: cells; conditions: for Percent survival: MTT after 48 h
Procedure: Cell culture and luciferase assay. A549 (non-small cell lung cancer), HT-1080 (fibrosarcoma), and MCF-7 (breast cancer) cells were cultured in the appropriate media with 10% FCS supplemented with L-glutamine, penicillin, and streptomycin. p53 wild-type (+/+) and null (−/−) Mouse Embryonic Fibroblasts (MEFs) transfected with the E1A/Ras were grown in DMEM containing 15% FCS supplemented with L-glutamine, penicillin, and streptomycin. Transfections were done on MCF-7 cells using the lipofectamine Plus reagent. At 24 hours after transfection, MCF-7 cells were left untreated or treated with triptolide (20 ng/ml) or doxorubicin (100 nM) for 4, 8, and 16 hours and cells were collected for luciferase assay. Luciferase activity was measured in samples with equal protein concentration with a Luminometer (Analytical Luminescence Laboratory, San Diego, Calif.).
Cell viability assay. Cell viability was measured by an 3-(4,5-dimethylthiazol-2-yl)-2,5-diphenyltetrazolium bromide (MTT) assay as described above. Untreated or cells treated with triptolide and/or doxorubicin were harvested at the indicated times followed by the addition of MTT to the cells in a 96-well plate. Cells were solubilized with […] acidified with 0.1N HCl. The 96-plate was read at a wavelength of 590 nm on an iEMS Labsystems plate reader.

p53 mRNA [3] = test: p53 mRNA by Northern blot in HT1080 cells; format: cell-based, human
Procedure: Northern Blot Analysis. RNA was prepared from HT1080 cells using RNeasy Mini Kit from Qiagen Inc. (Valencia, Calif.). cDNAs for Northern blot analysis for p21 and p53 were prepared using RT-PCR with […] of total RNA. The following primer pairs were used: p53, (SEQ ID NO:11) 5′-[…]-3′ and (SEQ ID NO:12) 5′-[…]-3′; p21, (SEQ ID NO:13) 5′-[…]-3′ and (SEQ ID NO:14) 5′-[…]-3′; and glyceraldehyde-3-phosphate dehydrogenase, (SEQ ID NO:15) 5′-[…]-3′ and 5′-(SEQ ID NO:16) […]-3′.

HT1080 cells = test: Cell viability by trypan blue exclusion, HT1080 cells (Example 5)
Procedure: Cell Viability Assay. HT-1080 cells were seeded into 6-well plates at 2×10^5 per well the day before the treatment. For the inducible expression of exogenous p21 and LacZ, the stable transfectants were cultured in the presence of 5 μM ponasterone A for 16 h. […] The cells were untreated or treated with doxorubicin, triptolide, or the combination of both at indicated dosages for 8 h at 37° C. Subsequently, the medium was replaced with new media plus 5 μM ponasterone A. After 16 h incubation at 37° C., the number of viable cells within the same fields were determined by trypan blue exclusion with a 2% trypan blue solution.

[4] = Observable toxicity in treated mice (body weight, activity, respiration); format: in vivo
Procedure: PG490-88 (0.75 mg/kg) as measured by a change in body weight, altered activity or labored respiration.

Row | SMILES | increase in phosphorylated p53 compared with untreated cells (phosphorylated p53) | p53 mRNA level (p53 mRNA [1]) | localisation of the majority of p53 (p53) | cell survival (Dx5 cells; overexpression of Bcl-2) | cell survival (Dx5 cells; vector control) | cytotoxicity at 0.02 µg/mL ([2]; Homo sapiens, MCF7, read-out: decrease in cell viability, MCF-7, triptolide 20 ng/ml) | Percent survival ([2]; MCF-7, Triptolide 5 ng/ml) | Percent survival ([2]; MCF-7, Triptolide 20 ng/ml) | level of p53 mRNA (p53 mRNA [3]) | effect on cell death by carboplatinum (HT1080 cells; A549 and HT1080 cells) | cytotoxicity at 0.02 µg/mL (HT1080 cells; Homo sapiens, HT-1080, 24 h, read-out: reduction of HT1080 cell viability) | observable toxicity (change in body weight, altered activity or labored respiration) ([4]; PG490-88 0.75 mg/kg) | tolerability ([4]; triptolide dosage on molar comparison to PG490-88 70 μg/mouse/week)
1 | CC(C)[C@]12O[C@H]1[C@@H]1O[C@]13[C@]1(O[C@H]1C[C@H]1C4=C(CC[C@@]13C)C(=O)OC4)[C@@H]2O [PG490, triptolide] | 2-3 fold | slightly reduced | translocated into nuclei | 72% | 15% | 70% | 63.9 ± 8.1% | 30.5 ± 7.6% | not affected | enhanced cell death | 84% | – | –
2 | CC(C)[C@]12O[C@H]1[C@@H]1O[C@]13[C@]1(O[C@H]1C[C@H]1C4=C(CC[C@@]13C)C(=O)OC4)[C@@H]2OC(=O)CCC(=O)[O-].[Na+] [PG490-88, 14-succinyl triptolide sodium salt] | – | – | – | – | – | – | – | – | – | – | – | no observable toxicity | well tolerated
